Patent publication US6737383B1, “Herbicidal oxadiazolidines” (priority 1999, dated 2004)

Tests used:
[1] = system: arrowleaf sida; assay: Test C postemergence arrowleaf sida; type: in vivo, Sida rhombifolia; conditions: 0 to 100 scale, 0 no effect, 100 complete control
Protocol: Compounds evaluated in this test were formulated in a non-phytotoxic solvent mixture which included a surfactant and applied to plants that were grown for various periods of time before treatment (postemergence application). A mixture of sandy loam soil and greenhouse potting mix in a 60:40 ratio was used for the postemergence test.
Plantings of these crops and weed species were adjusted to produce plants of appropriate size for the postemergence test. All plant species were grown using normal greenhouse practices. Crop and weed species include arrowleaf sida (Sida rhombifolia), barnyardgrass (Echinochloa crus-galli), cocklebur (Xanthium strumarium), common ragweed (Ambrosia elatior), corn (Zea mays), cotton (Gossypium hirsutum), eastern black nightshade (Solanum ptycanthum), fall panicum (Panicum dichotomiflorum), field bindweed (Convolvulus arvensis), giant foxtail (Setaria faberii), hairy beggarticks (Bidens pilosa), ivyleaf morningglory (Ipomoea hederacea), johnsongrass (Sorghum halepense), ladysthumb smartweed (Polygonum persicaria), lambsquarters (Chenopodium album), large crabgrass (Digitaria sanguinalis), purple nutsedge (Cyperus rotundus), redroot pigweed (Amaranthus retroflexus), soybean (Glycine max), surinam grass (Brachiaria decumbens), velvetleaf (Abutilon theophrasti) and wild poinsettia (Euphorbia heterophylla).
Treated plants and untreated controls were maintained in a greenhouse for approximately 14, to 21 days, after which all treated plants were compared to untreated controls and visually evaluated. Plant response ratings, summarized in Table C, were based upon a 0 to 100 scale where 0 was no effect and 100 was complete control. A dash response (−) means no test result.

[2] = system: Russian thistle; assay: Test E Russian thistle; type: in vivo, Salsola kali; conditions: Preemergence; for Russian thistle plant response rating (0 to 100 scale): Rate 250 g/ha
[3] = system: littleseed canarygrass; assay: Test E littleseed canarygrass; type: in vivo, Phalaris minor; conditions: Postemergence; for Plant response rating, LS canarygrass: 0 to 100 scale; for LS canarygrass plant response rating: Rate 250 g/ha, 0 to 100 scale where 0 is no effect and 100 is complete control
Protocol: (§1) Compounds evaluated in this test were formulated in a non-phytotoxic solvent mixture which included a surfactant and applied to plants that were in the 1- to 4-leaf stage (postemergence application). A mixture of sandy loam soil and greenhouse potting mix in a 60:40 ratio was used for the postemergence test.
(§2) Plantings of these crops and weed species were adjusted to produce plants of appropriate size for the postemergence test. All plant species were grown using normal greenhouse practices. Crop and weed species include annual bluegrass (Poa annua), blackgrass (Alopecurus myosuroides), black nightshade (Solanum nigra), chickweed (Stellaria media), common poppy (Papaver rhoeas), deadnettle (Lamium amplexicaule), downy brome (Bromus tectorum), field violet (Viola arvensis), galium (Galium aparine), green foxtail (Setaria viridis), Italian ryegrass (Lolium multiflorum), jointed goatgrass (Aegilops cylindrica), kochia (Kochia scoparia), lambsquarters (Chenopodium album), littleseed canarygrass (Phalaris minor), rape (Brassica napus), redroot pigweed (Amaranthus retroflexus), Russian thistle (Salsola kali), scentless chamomile (Matricaria inodora), spring barley (Hordeum vulgare), sugar beet (Beta vulgaris), sunflower (Helianthus annuus), ivyleaf speedwell (Veronica hederaefolia), spring wheat (Triticum aestivum), winter wheat (Triticum aestivum), wild buckwheat (Polygonum convolvulus), wild mustard (Sinapis arvensis), wild oat (Avena fatua), windgrass (Apera spica-venti) and winter barley (Hordeum vulgare).
(§3) Treated plants and untreated controls were maintained in a greenhouse for approximately 21 to 28 days, after which all treated plants were compared to untreated controls and visually evaluated. […] A dash response (-) means no test result.

[4] = system: sunflower; assay: Test E sunflower; type: in vivo, Helianthus annuus; conditions: Postemergence; for Plant response rating, Sunflower: 0 to 100 scale; for Sunflower plant response rating: Rate 250 g/ha, 0 to 100 scale where 0 is no effect and 100 is complete control
Protocol: as §2, with “Plantings of these crops and weed species were adjusted to produce plants of appropriate size for the postemergence test.” left out
as §3

[5] = system: wild buckwheat; assay: Test E wild buckwheat; type: in vivo, Polygonum convolvulus; conditions: Postemergence; for Plant response rating, Wild buckwheat: 0 to 100 scale; for Wild buckwheat plant response rating: Rate 250 g/ha, 0 to 100 scale where 0 is no effect and 100 is complete control
Procedure, shortened: (§4)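 Postemergence: spray at 1–4 leaf stage, soil 60:40 sandy loam:potting mix; solvent + surfactant formulation; greenhouse 21–28 d; visual injury vs untreated controls.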

[6] = system: black nightshade; assay: Test E black nightshade; type: in vivo, Solanum nigra; conditions: Postemergence; for Plant response rating, Blk nightshade: 0 to 100 scale; for Blk nightshade plant response rating: Rate 250 g/ha, 0 to 100 scale where 0 is no effect and 100 is complete control
Protocol: as §1, §2, §3

[7] = system: spring barley; assay: Test E spring barley; type: in vivo, Hordeum vulgare; conditions: Preemergence; for Spring Barley plant response rating (0 to 100 scale): Rate 250 g/ha
[8] = system: redroot pigweed; assay: Test E redroot pigweed; type: in vivo, Amaranthus retroflexus; conditions: Preemergence; for Redroot pigweed plant response rating (0 to 100 scale): Rate 250 g/ha
[9] = system: jointed goatgrass; assay: Test E jointed goatgrass; type: in vivo, Aegilops cylindrica; conditions: Postemergence; for Plant response rating, Jointed goatgra: 0 to 100 scale; for Jointed goatgra plant response rating: Rate 250 g/ha, 0 to 100 scale where 0 is no effect and 100 is complete control
Procedure, shortened: as §4

[10] = system: common poppy; assay: Test E common poppy; type: in vivo, Papaver rhoeas; conditions: Postemergence; for Common poppy plant response rating: Rate 250 g/ha, 0 to 100 scale where 0 is no effect and 100 is complete control
Procedure, shortened: as §4

[11] = system: spring wheat; assay: Test E spring wheat; type: in vivo, Triticum aestivum; conditions: Preemergence; for Spring Wheat plant response rating (0 to 100 scale): Rate 250 g/ha
[12] = system: wild buckwheat; assay: Test E wild buckwheat; type: in vivo, Polygonum convolvulus; conditions: Preemergence; for Wild buckwheat plant response rating (0 to 100 scale): Rate 250 g/ha
[13] = system: green foxtail; assay: Test E green foxtail; type: in vivo, Setaria viridis; conditions: Postemergence; for Plant response rating, Green foxtail: 0 to 100 scale; for Green foxtail plant response rating: Rate 250 g/ha, 0 to 100 scale where 0 is no effect and 100 is complete control
Protocol: as §1, §2, §3

[14] = system: field violet; assay: Test E field violet; type: in vivo, Viola arvensis; conditions: Preemergence; for Field violet plant response rating (0 to 100 scale): Rate 250 g/ha
[15] = system: dallisgrass; assay: Test D dallisgrass; type: in vivo, Paspalum dilatatum; conditions: Postemergence, 0 to 100 scale
[16] = Rate 125 g/ha, 0 to 100 scale (0 no effect, 100 complete control)
[17] = Rate 500 g/ha, 0 to 100 scale where 0 is no effect and 100 is complete control
[18] = Rate 125 g/ha, 0 is no effect, 100 is complete control
[19] = Rate 500 g/ha, 0 is no effect, 100 is complete control
[20] = Rate 16 g/ha, 0 no injury, 100 complete control
[21] = Rate 32 g/ha, 0 no injury, 100 complete control
[22] = Rate 64 g/ha, 0 no injury, 100 complete control
[23] = Rate 125 g/ha, 0 no injury, 100 complete control

CC(C)N(C(=O)n1oc(=O)n(C)c1=O)c1ccc(F)cc1 [Compound 138]
Plant response rating Arrowleaf sida ([1]; Rate 140 g/ha): 0 | Plant response rating Arrowleaf sida ([1]; Rate 1120 g/ha): 70 | Plant response rating, Russian thistle [2, 16]: 10 | Russian thistle plant response rating (0 to 100 scale) [2]: 20 | Plant response rating, LS canarygrass ([3]; Rate 125 g/ha): 10 | LS canarygrass plant response rating [3]: 10 | Plant response rating, Sunflower ([4]; Rate 125 g/ha): 0 | Sunflower plant response rating [4]: 0 | Plant response rating, Wild buckwheat ([5]; Rate 125 g/ha): 0 | Wild buckwheat plant response rating [5]: 0 | Plant response rating, Blk nightshade ([6]; Rate 125 g/ha): 20 | Blk nightshade plant response rating [6]: 60 | Plant response rating, Spring Barley [7, 16]: 60 | Spring Barley plant response rating (0 to 100 scale) [7]: 90 | Plant response rating, Redroot pigweed [8, 16]: 90 | Redroot pigweed plant response rating (0 to 100 scale) [8]: 90 | Plant response rating, Jointed goatgra ([9]; Rate 125 g/ha): 0 | Jointed goatgra plant response rating [9]: 0 | Plant response rating, Comnion poppy ([10]; Rate 125 g/ha, 0 to 100 scale): 20 | Common poppy plant response rating [10]: 40 | Plant response rating, Spring Wheat [11, 16]: 55 | Spring Wheat plant response rating (0 to 100 scale) [11]: 100 | Plant response rating, Wild buckwheat [12, 16]: 50 | Wild buckwheat plant response rating (0 to 100 scale) [12]: 100 | Plant response rating, Green foxtail ([13]; Rate 125 g/ha): 15 | Green foxtail plant response rating [13]: 70 | Plant response rating, Field violet [14, 16]: 50 | Field violet plant response rating (0 to 100 scale) [14]: 70

CC(C)N(C(=O)n1oc(=O)n(C2CC2)c1=O)c1ccc(F)cc1 [Compound 242]
Plant response rating Arrowleaf sida ([1]; Rate 140 g/ha): 10 | Plant response rating Arrowleaf sida ([1]; Rate 280 g/ha): 30 | Plant response rating Arrowleaf sida ([1]; Rate 560 g/ha): 70 | Plant response rating Arrowleaf sida ([1]; Rate 1120 g/ha): 90 | Plant response rating, Russian thistle [2, 16]: 20 | Russian thistle plant response rating (0 to 100 scale) [2]: 30 | Plant response rating, Russian thistle [2, 17]: 50 | Plant response rating, LS canarygrass ([3]; Rate 62 g/ha): 65 | Plant response rating, LS canarygrass [3, 18]: 10 | LS canarygrass plant response rating [3]: 15 | Plant response rating, LS canarygrass [3, 19]: 50 | Plant response rating, Sunflower ([4]; Rate 62 g/ha): 10 | Plant response rating, Sunflower [4, 18]: 10 | Sunflower plant response rating [4]: 0 | Plant response rating, Sunflower [4, 19]: 20 | Plant response rating, Dallisgrass [15, 20]: 60 | Plant response rating, Dallisgrass [15, 21]: 90 | Plant response rating, Dallisgrass [15, 22]: 90 | Plant response rating, Dallisgrass [15, 23]: 100 | Plant response rating, Dallisgrass ([15]; Rate 250 g/ha): 100 | Plant response rating, Wild buckwheat ([5]; Rate 62 g/ha): 50 | Plant response rating, Wild buckwheat [5, 18]: 10 | Wild buckwheat plant response rating [5]: 10 | Plant response rating, Wild buckwheat [5, 19]: 0 | Plant response rating, Blk nightshade ([6]; Rate 62 g/ha): 60 | Plant response rating, Blk nightshade [6, 18]: 30 | Blk nightshade plant response rating [6]: 50 | Plant response rating, Blk nightshade [6, 19]: 75 | Plant response rating, Spring Barley [7, 16]: 60 | Spring Barley plant response rating (0 to 100 scale) [7]: 70 | Plant response rating, Spring Barley [7, 17]: 85 | Plant response rating, Redroot pigweed [8, 16]: 90 | Redroot pigweed plant response rating (0 to 100 scale) [8]: 100 | Plant response rating, Redroot pigweed [8, 17]: 100 | Plant response rating, Jointed goatgra ([9]; Rate 62 g/ha): 55 | Plant response rating, Jointed goatgra [9, 18]: 0 | Jointed goatgra plant response rating [9]: 0 | Plant response rating, Jointed goatgra [9, 19]: 40 | Plant response rating, Common poppy ([10]; Rate 62 g/ha, 0 to 100 scale): 55 | Plant response rating, Common poppy ([10]; Rate 125 g/ha, 0 to 100 scale, 0 is no effect, 100 is complete control): 40 | Common poppy plant response rating [10]: 20 | Plant response rating, Common poppy ([10]; Rate 500 g/ha, 0 to 100 scale, 0 is no effect, 100 is complete control): 0 | Plant response rating, Spring Wheat [11, 16]: 55 | Spring Wheat plant response rating (0 to 100 scale) [11]: 60 | Plant response rating, Spring Wheat [11, 17]: 100 | Plant response rating, Wild buckwheat [12, 16]: 60 | Wild buckwheat plant response rating (0 to 100 scale) [12]: 70 | Plant response rating, Wild buckwheat [12, 17]: 100 | Plant response rating, Green foxtail ([13]; Rate 62 g/ha): 60 | Plant response rating, Green foxtail [13, 18]: 30 | Green foxtail plant response rating [13]: 60 | Plant response rating, Green foxtail [13, 19]: 70 | Plant response rating, Field violet [14, 16]: 50 | Field violet plant response rating (0 to 100 scale) [14]: 65 | Plant response rating, Field violet [14, 17]: 100

CC(C)N(C(=O)n1oc(=O)n(C2CCCCCC2)c1=O)c1ccc(F)cc1F [Compound 342]
Plant response rating, Dallisgrass [15, 20]: 0 | Plant response rating, Dallisgrass [15, 21]: 0 | Plant response rating, Dallisgrass [15, 22]: 0 | Plant response rating, Dallisgrass [15, 23]: 90 | Plant response rating, Dallisgrass ([15]; Rate 250 g/ha): 100
